In patent US11731946B2, “Broad spectrum antivirulence, anti-persistence compounds” (priority 2017, dated 2023):

Legend:
MvfR regulon [1] = experiment: pqsA gene expression (pqsA-GFP reporter); format: cell-based, P. aeruginosa; details: for activity at 10 µM / activity at 50 µM / IC50: Pseudomonas aeruginosa; for activity at 10 µM: read-out: pqsA @10 uM (%), compound at 10 uM; for activity at 50 µM: read-out: pqsA @50 uM (%), compound at 50 uM; for IC50: read-out: IC50 pqsA (μM)
Method: Experiments were performed to identify compounds that inhibit the MvfR regulon without altering growth, ultimately attenuating P. aeruginosa infection. MvfR is a LysR-type transcriptional regulator that directs HAQs synthesis, including that of its ligands, 4-hydroxy-2-heptylquinoline (HHQ) and 3,4-dihydroxy-2-heptylquinoline (PQS).
MvfR promotes the production of HAQs by binding to and activating the pqs operon, which encodes enzymes for HAQ synthesis. Anthranilic acid (AA), derived from the phnAB, kynABU, and trpEG pathways, is the precursor for HAQs. pqsA encodes an anthranilate-coenzyme A ligase, which activates anthranilic acid and catalyzes the first committed step to HAQ production. The exact roles of PqsB and PqsC are unknown, though both show homology to acyl-carrier-proteins and both are required for HHQ and PQS production. […] The final gene of the operon, pqsE encodes for a putative hydrolase, and while the protein is not required for the synthesis of HAQs, it is necessary for pyocyanin production.
Nanomolar levels of most of these MvfR antagonists impeded the activity of MvfR and in consequence the MvfR virulence regulated ACRP functions, including: (1) the production of the important pro-acute P. aeruginosa virulence factor pyocyanin (see e.g., FIG. 9A) the efficacy of two of these potent inhibitors, D57 and D88, was also confirmed by testing many different MDR P. aeruginosa clinical isolates (see e.g., FIG. 11A-11B), providing further confidence of their inhibitory potency; (2) the expression of the genes that encode the enzymes catalyzing the synthesis of both pro-acute and pro-persistence MvfR-regulated virulence molecules, 4-hydroxyl-2-alkyl-quinolines (HAQs) and 2-aminoacetophenon (2-AA), as assessed by pqsAGFP reporter gene expression (see e.g., FIG. 9B) and HAQ production showing the levels of MvfR inducers/ligands HHQ and PQS as well as of the molecules critical for biofilm and Antibiotic tolerant/persiters cells formation HQNO and 2-AA (see e.g., FIG. 9C); (3) AT/P cell formation (see e.g., FIGS. 11A, 12A); (4) biofilm formation (see e.g., FIG. 12B); and (5) biofilm dispersal of preformed biofilm by potentiating antibiotic action (see e.g., FIG. 11B).

MvfR regulon [2] = experiment: Quantification of pyocyanin (OD520nm of chloroform-extracted cultures); format: cell-based, P. aeruginosa; details: for activity at 1 µM / activity at 10 µM / activity at 50 µM / IC50: Pseudomonas aeruginosa; for activity at 1 µM: read-out: pyocyanin @1 uM (%), compound at 1 uM; for activity at 10 µM: read-out: pyocyanin @10 uM (%), compound at 10 uM; for activity at 50 µM: read-out: pyocyanin @50 uM (%), compound at 50 uM; for IC50: read-out: IC50 pyocyanin (μM)
MvfR = target: T1, MvfR (Pseudomonas aeruginosa, UniProt Q9I4X0); experiment: Surface plasmon resonance (SPR) binding to purified MvfR co-inducer binding domain; parameters: species or system P. aeruginosa; details: SPR
T1 construct: made in house
Method: Compounds identified to interfere with MvfR were confirmed for the direct physical interaction with this protein. Using SPR, the percentage of compound's binding to the purified MvfR protein was analyzed and used to determine the binding parameters (KD, kon and koff)—thus determining the kinetic of interaction with MvfR.
The recombinant MvfR co-inducer binding domain was purified using Ni-NTA chromatography, as previously reported (see e.g., Xiao et al, Microbiology, 2006, 152:1679-1686; Starkey et al, PLoS Pathog. 2014, 10:e1004321; and Kefala et al, Acta. Crystallogr. Sect. F. Struct. Biol. Cryst. Commun. 2012, 68:695-697). The purified protein was immobilized with the amine coupling method at a target level of 5000 RU on Chip. SPR was performed according to previously reported procedures (see e.g., Starkey et al, PLoS Pathog. 2014, 10:e1004321; Maura et al, ACS Chemical Biology, 2017, 12:1435-1443; and Kitao et al, MBIO, in press). […] Table 3 lists the steady-state KD data measured by SPR.

MvfR regulon [3] = experiment: LC/MS quantification of HAQs and related molecules in bacterial culture supernatants; format: cell-based, P. aeruginosa; details: Pseudomonas aeruginosa
[4] = mean KD value, mean over the compounds named
[5] = Steady State Binding Affinity KD (μM), steady state
[6] = Steady State Binding Affinity KD [M], steady state
[7] = compound at 50 uM, listed as G1

T1 sequence (Q9I4X0 91-332): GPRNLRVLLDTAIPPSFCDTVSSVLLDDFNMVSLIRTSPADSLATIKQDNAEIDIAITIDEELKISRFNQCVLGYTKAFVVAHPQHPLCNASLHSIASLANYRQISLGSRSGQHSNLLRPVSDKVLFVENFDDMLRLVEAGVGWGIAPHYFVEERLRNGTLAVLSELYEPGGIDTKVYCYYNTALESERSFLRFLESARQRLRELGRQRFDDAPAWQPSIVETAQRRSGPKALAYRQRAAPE

| Compound | activity at 10 µM (MvfR regulon [1]) | activity at 50 µM (MvfR regulon [1]) | activity at 50 µM (MvfR regulon [2]) | activity at 50 µM (MvfR regulon [3]; read-out: 2-AA @50 uM) | activity at 50 µM (MvfR regulon [3]; read-out: AA @50 uM) | activity at 50 µM (MvfR regulon [3]; read-out: DHQ @50 uM) | activity at 50 µM (MvfR regulon [3]; read-out: HHQ @50 uM (%)) | activity at 50 µM (MvfR regulon [3]; read-out: HQNO @50 uM (%)) | activity at 50 µM (MvfR regulon [3]; read-out: PQS @50 uM (%)) | also measured |
| --- | --- | --- | --- | --- | --- | --- | --- | --- | --- | --- |
| N#Cc1ccc(NC(=O)CC(=O)Nc2ccc(C#N)c(Cl)c2)cc1 [Compound 110] | 1.75% | 5.61% | 4.12% | – | – | – | – | – | – | activity at 1 µM (MvfR regulon [2]): 64.7%; activity at 10 µM (MvfR regulon [2]): 6.8%; Kd (MvfR; [4]): 0.25 µM |
| N#Cc1ccc(NC(=O)CC(=O)Nc2ccc(C#N)cc2)cc1 [Compound 57] | – | 8.3% | 8.07% | 20% | 531% | 31.9% | 18.1% | 36% | 22.3% | IC50 (MvfR regulon [1]): 0.94 µM; IC50 (MvfR regulon [2]): 1.37 µM; Signal Intensity Rmax (MvfR): 27.05; binding intensity relative to parent Compound 1 (MvfR): 40 times; Kd (MvfR; [5]): 0.286 µM; Kd (MvfR; [6]): 0.286 µM; Kd (MvfR; [4]): ~0.25 µM |
| N#Cc1ccc(NC(=O)CC(=O)Nc2ccc(F)cc2)cc1 [Compound 48] | – | 9.7% | 15.7% | 37.3% | 187% | 68.3% | 56.8% | 58.5% | 46.7% | IC50 (MvfR regulon [1]): 5.5 µM; IC50 (MvfR regulon [3]; PA14, read-out: IC50 2-AA (μM)): 20.9 µM; IC50 (MvfR regulon [3]; PA14, read-out: IC50 DHQ (μM)): 33 µM; IC50 (MvfR regulon [3]; PA14, read-out: IC50 HHQ (μM)): 47.5 µM; IC50 (MvfR regulon [3]; PA14, read-out: IC50 PQS (μM)): 36.5 µM; IC50 (MvfR regulon [3]; read-out: IC50 AA (increase; μM)): 42.5 µM; IC50 (MvfR regulon [3]; read-out: IC50 HQNO (μM)): 33.7 µM; IC50 (MvfR regulon [2]): 7.1 µM |
| N#Cc1ccc(NC(=S)CC(=S)Nc2ccc(F)cc2)cc1 [Compound 60] | 117% | 80.7% | 106% | 104% | 28.2% | 82.9% | 66.6% | 77% | 83.6% | – |
| N#Cc1ccc(NC(=O)CNc2ccc(F)cc2)cc1 [Compound 9] | – | 63.2% | 85.6% | 112% | – | – | 87.1% | 108% | 124% | – |
| CN(C(=O)CC(=O)Nc1ccc(C#N)cc1)c1ccc(F)cc1 [Compound 59] | 110% | 105% | 110% | 97.3% | 35.5% | 91% | 75.9% | 85.3% | 86.6% | – |
| Cc1cc(F)ccc1N1CCCC(NC(=O)c2ccc(C#N)cc2)C1 (centres unmarked) [Compound 50] | – | 89.9% | 108% | 101% | 54.5% | 84.2% | 98.5% | 100% | 96.1% | – |
| Cc1cc(F)ccc1NCC(=O)Nc1cccc(C#N)c1 [Compound 2] | – | – | – | 122% | – | – | 100% | 101% | 109% | pqsA @50 uM (%) (MvfR regulon [1]; [7]): 84.13%; pyocyanin @50 uM (%) (MvfR regulon [2]; [7]): 102.49% |
| Cc1cc(F)ccc1NCC(=O)Nc1ccccc1C#N [Compound 4] | – | 95.9% | 113% | 123% | – | – | 99.2% | 111% | 122% | – |
| Cc1ccccc1N(C)CC(=O)Nc1ccc(C#N)cc1 [Compound 12] | – | 95.7% | 96% | 63.1% | – | 51.5% | 73.4% | 91.2% | 95.5% | – |
| N#Cc1ccc(NC(=O)CCNc2ccc(F)cc2)cc1 [Compound 46] | – | 79.6% | 90.8% | 113% | 101% | 99.5% | 97% | 95.8% | 97.2% | – |
| O=C(CC(=O)Nc1ccc([N+](=O)[O-])cc1)Nc1ccc(Oc2ccccc2)cc1 [Compound 73] | 1.95% | 8.9% | 5.9% | – | – | – | – | – | – | IC50 (MvfR regulon [1]): 0.21 µM; IC50 (MvfR regulon [2]): 0.398 µM; activity at 1 µM (MvfR regulon [2]): 9.2%; activity at 10 µM (MvfR regulon [2]): 5.2%; Signal Intensity Rmax (MvfR): 33.31; Kd (MvfR; [5]): 0.755 µM; Kd (MvfR; [6]): 0.755 µM |
| Cc1cc(F)ccc1OCC(=O)Nc1ccc(C#N)cc1 [Compound 6] | – | 98% | 98.4% | 63.4% | – | 82.7% | 114% | 111% | 114% | – |
| N#Cc1ccc(NC(=O)CC(=O)Nc2ccc(N)cc2)cc1 [Compound 67] | 97.9% | 89.7% | 87.2% | 101% | 115% | 103% | 92.3% | 91.7% | 86.4% | – |
| Cc1cc(F)ccc1NC(C)C(=O)Nc1ccc(C#N)cc1 (centres unmarked) [Compound 7] | – | 86.8% | 110% | 152% | – | – | 106% | 131% | 115% | – |
| CC(=O)Nc1ccc(NC(=O)CC(=O)Nc2ccc(C#N)cc2)cc1 [Compound 68] | 94.2% | 84.8% | 103% | 92.8% | 56% | 98.2% | 74.7% | 84.6% | 87.6% | – |
| Cc1cc(F)ccc1NCC(=O)Nc1ccc(C(F)(F)F)cc1 [Compound 3] | – | 46% | 60.9% | 68.3% | – | 81.5% | 110% | 86.5% | 93.4% | – |
| Cc1cc(F)ccc1OCC(=O)Nc1ccc(F)cc1 [Compound 8] | – | 78% | 91.1% | 71.7% | – | 67.8% | 83.5% | 94% | 94.7% | – |
| N#Cc1ccc(NC(=O)C(=O)Nc2ccc(F)cc2)cc1 [Compound 49] | – | 96.9% | 106% | 103% | 89.8% | 105% | 97.9% | 99.5% | 110% | – |
| CS(=O)(=O)CNc1ccc(NC(=O)CC(=O)Nc2ccc(C#N)cc2)cc1 [Compound 70] | 94.7% | 131% | 99.7% | 94.8% | 117% | 80% | 130% | 98.3% | 115% | – |
| Cc1cc(F)ccc1NC(=O)Cc1ccc(C#N)cc1 [Compound 52] | – | 95.7% | 115% | 113% | 80.7% | 84.9% | 102% | 109% | 99.8% | – |
